Data: US4535161A, “Benzoquinolizine derivatives” (Daiichi Seiyaku Co., Ltd., priority 1982, dated 1985)
Converted amounts (≈) assume the structure as drawn. Where a name gives a salt, the structure may show the parent alone. Read-outs that look alike come from different tables or passages of the source.

Tests used:
Ser. marcescens, 10104 = assay: Antibacterial activity (MIC), Table 1: Ser. marcescens, 10104; assay type: cell-based; conditions: Serratia marcescens, Mueller-Hinton Broth, 10^6/ml, 37° C., 18 hours
Method: (§1) *Determined by the standard method of the Japan Society of Chemoterapy:
(§2) (MuellerHinton Broth medium), 10^6 /ml of bacteria were seeded and
(§3) incubated at 37° C. for 18 hours.

Ps. aeruginosa, 32234 = assay: Antibacterial activity (MIC), Table 1: Ps. aeruginosa, 32234; assay type: cell-based; conditions: Pseudomonas aeruginosa, Mueller-Hinton Broth, 10^6/ml, 37° C., 18 hours
Method: as §1, §2, §3

Gram-positive bacteria = assay: Antibacterial activity against Gram-positive bacteria (summary of Table 1); assay type: cell-based; conditions: in words
Method: as §1, §2, §3

Ps. aeruginosa, 32233 = assay: Antibacterial activity (MIC), Table 1: Ps. aeruginosa, 32233; assay type: cell-based; conditions: Pseudomonas aeruginosa, Mueller-Hinton Broth, 10^6/ml, 37° C., 18 hours
Method: as §1, §2, §3

B. subtilis, ATCC-6633 = assay: Antibacterial activity (MIC), Table 1: B. subtilis, ATCC-6633; assay type: cell-based; conditions: Bacillus subtilis, ATCC6633, Mueller-Hinton Broth, 10^6/ml, 37° C., 18 hours
Method: as §1, §2, §3

S. aureus, 209 P = assay: Antibacterial activity (MIC), Table 1: S. aureus, 209 P; assay type: cell-based; conditions: Staphylococcus aureus, Mueller-Hinton Broth, 10^6/ml, 37° C., 18 hours
Method: as §1, §2, §3

S. epidermidis, 56500 = assay: Antibacterial activity (MIC), Table 1: S. epidermidis, 56500; assay type: cell-based; conditions: Staphylococcus epidermidis, Mueller-Hinton Broth, 10^6/ml, 37° C., 18 hours
Method: as §1, §2, §3

Sh. flexneri, 2a, 5503 = assay: Antibacterial activity (MIC), Table 1: Sh. flexneri, 2a, 5503; assay type: cell-based; conditions: Shigella flexneri, Mueller-Hinton Broth, 10^6/ml, 37° C., 18 hours
Method: as §1, §2, §3

Ps. aeruginosa, 32121 = assay: Antibacterial activity (MIC), Table 1: Ps. aeruginosa, 32121; assay type: cell-based; conditions: Pseudomonas aeruginosa, Mueller-Hinton Broth, 10^6/ml, 37° C., 18 hours
Method: as §1, §2, §3

Pr. mirabilis, IFO-3849 = assay: Antibacterial activity (MIC), Table 1: Pr. mirabilis, IFO-3849; assay type: cell-based; conditions: Proteus mirabilis, IFO3849, Mueller-Hinton Broth, 10^6/ml, 37° C., 18 hours
Method: as §1, §2, §3

Ps. aeruginosa, 32122 = assay: Antibacterial activity (MIC), Table 1: Ps. aeruginosa, 32122; assay type: cell-based; conditions: Pseudomonas aeruginosa, Mueller-Hinton Broth, 10^6/ml, 37° C., 18 hours
Method: as §1, §2, §3

Ps. aeruginosa, 32104 = assay: Antibacterial activity (MIC), Table 1: Ps. aeruginosa, 32104; assay type: cell-based; conditions: Pseudomonas aeruginosa, Mueller-Hinton Broth, 10^6/ml, 37° C., 18 hours
Method: as §1, §2, §3

E. coli, NIHJ = assay: Antibacterial activity (MIC), Table 1: E. coli, NIHJ; assay type: cell-based; conditions: Escherichia coli, Mueller-Hinton Broth, 10^6/ml, 37° C., 18 hours
Method: as §1, §2, §3

[1] = system: Str. faecalis, ATCC-19433; assay: Antibacterial activity (MIC), Table 1: Str. faecalis, ATCC-19433; assay type: cell-based; conditions: Enterococcus faecalis, ATCC19433, Mueller-Hinton Broth, 10^6/ml, 37° C., 18 hours
Method: as §1, §2, §3

K. pneumoniae, type 1 = assay: Antibacterial activity (MIC), Table 1: K. pneumoniae, type 1; assay type: cell-based; conditions: Klebsiella pneumoniae, TYPE1, Mueller-Hinton Broth, 10^6/ml, 37° C., 18 hours
Method: as §1, §2, §3

Ent. cloacae, 03400 = assay: Antibacterial activity (MIC), Table 1: Ent. cloacae, 03400; assay type: cell-based
Method: as §1, §2, §3

Pr. vulgaris, 08602 = assay: Antibacterial activity (MIC), Table 1: Pr. vulgaris, 08602; assay type: cell-based; conditions: Proteus vulgaris, Mueller-Hinton Broth, 10^6/ml, 37° C., 18 hours
Method: as §1, §2, §3

Str. pyogenes, G-36 = assay: Antibacterial activity (MIC), Table 1: Str. pyogenes, G-36; assay type: cell-based; conditions: Streptococcus pyogenes, G36, Mueller-Hinton Broth, 10^6/ml, 37° C., 18 hours
Method: as §1, §2, §3

Pseudomonas aeruginosa = assay: Antibacterial activity against Pseudomonas aeruginosa (summary of Table 1); assay type: cell-based; conditions: in words
Method: as §1, §2, §3

[2] = Acute toxicity (LD50) in mice (i.v.); conditions: mouse, in vivo, iv

SMILES | MIC (Ser. marcescens, 10104) | MIC (Ps. aeruginosa, 32234) | MIC (Ps. aeruginosa, 32233) | MIC (B. subtilis, ATCC-6633) | MIC (S. aureus, 209 P) | MIC (S. epidermidis, 56500) | MIC (Sh. flexneri, 2a, 5503) | MIC (Ps. aeruginosa, 32121) | MIC (Pr. mirabilis, IFO-3849) | MIC (Ps. aeruginosa, 32122) | MIC (Ps. aeruginosa, 32104) | MIC (E. coli, NIHJ) | MIC [1] | MIC (K. pneumoniae, type 1) | MIC (Pr. vulgaris, 08602) | MIC (Str. pyogenes, G-36) | other results
C=C1CCc2c(N3CCC(O)C3)c(F)cc3c(=O)c(C(=O)O)cn1c23 (stereo not shown) [Ia, 9-fluoro-8-(3-hydroxy-1-pyrrolidinyl)-5-methylene-1-oxo-6,7-dihydro-1H,5H-benzo(ij)quinolizine-2-carboxylic acid] | 0.1 µg/mL (≈ 0.29 µM) | 0.39 µg/mL (≈ 1.13 µM) | 0.78 µg/mL (≈ 2.27 µM) | ≤ 0.0063 µg/mL | 0.05 µg/mL (≈ 0.145 µM) | 0.1 µg/mL (≈ 0.29 µM) | 0.0125 µg/mL (≈ 0.0363 µM) | 0.1 µg/mL (≈ 0.29 µM) | 0.1 µg/mL (≈ 0.29 µM) | 0.39 µg/mL (≈ 1.13 µM) | 0.31 µg/mL (≈ 0.9 µM) | 0.0125 µg/mL (≈ 0.0363 µM) | 0.39 µg/mL (≈ 1.13 µM) | 0.1 µg/mL (≈ 0.29 µM) | 0.05 µg/mL (≈ 0.145 µM) | 0.39 µg/mL (≈ 1.13 µM) | antibacterial activity against Gram-positive bacteria (Gram-positive bacteria): very strong antibacterial activity; MIC (Ent. cloacae, 03400; Enterobacter cloacae, Ent. cloacae, 03400, Mueller-Hinton Broth, 10^6/ml, 37° C., 18 hours, read-out: MIC): 0.05 µg/mL (≈ 0.145 µM)
C=C1CCc2c(N3CCC(N)C3)c(F)cc3c(=O)c(C(=O)O)cn1c23 (stereo not shown) [Ib, 8-(3-amino-1-pyrrolidinyl)-9-fluoro-5-methylene-1-oxo-6,7-dihydro-1H,5H-benzo(ij)quinolizine-2-carboxylic acid] | 0.05 µg/mL (≈ 0.146 µM) | 0.05 µg/mL (≈ 0.146 µM) | 0.1 µg/mL (≈ 0.291 µM) | 0.025 µg/mL (≈ 0.0728 µM) | 0.1 µg/mL (≈ 0.291 µM) | 0.19 µg/mL (≈ 0.553 µM) | 0.0125 µg/mL (≈ 0.0364 µM) | 0.025 µg/mL (≈ 0.0728 µM) | 0.025 µg/mL (≈ 0.0728 µM) | 0.1 µg/mL (≈ 0.291 µM) | 0.05 µg/mL (≈ 0.146 µM) | 0.0125 µg/mL (≈ 0.0364 µM) | 0.39 µg/mL (≈ 1.14 µM) | 0.05 µg/mL (≈ 0.146 µM) | 0.025 µg/mL (≈ 0.0728 µM) | 0.39 µg/mL (≈ 1.14 µM) | antibacterial activity against Pseudomonas aeruginosa (Pseudomonas aeruginosa): very strong antibacterial activity; MIC (Ent. cloacae, 03400; Enterobacter cloacae, 03400, 18 h): 0.0125 µg/mL (≈ 0.0364 µM)
C=C1CCc2c(N3CCC(N)C3)c(F)cc3c(=O)c(C(=O)O)cn1c23 (stereo not shown) [Ib, hydrochloric acid addition salt, 8-(3-amino--pyrrolidinyl)-9-fluoro-5-methylene-6,7-dihydro-1-oxo-1H,5H-benzo(ij)quinolizine-2-carboxylic acid] |  |  |  |  |  |  |  |  |  |  |  |  |  |  |  |  | LD50 [2]: 252 mg/kg
